One assay concerns the target T1, AtGID1c (Arabidopsis thaliana, UniProt Q940G6).
T1 construct: made in house; host or cells: E. coli
T1 sequence (Q940G6 1-344): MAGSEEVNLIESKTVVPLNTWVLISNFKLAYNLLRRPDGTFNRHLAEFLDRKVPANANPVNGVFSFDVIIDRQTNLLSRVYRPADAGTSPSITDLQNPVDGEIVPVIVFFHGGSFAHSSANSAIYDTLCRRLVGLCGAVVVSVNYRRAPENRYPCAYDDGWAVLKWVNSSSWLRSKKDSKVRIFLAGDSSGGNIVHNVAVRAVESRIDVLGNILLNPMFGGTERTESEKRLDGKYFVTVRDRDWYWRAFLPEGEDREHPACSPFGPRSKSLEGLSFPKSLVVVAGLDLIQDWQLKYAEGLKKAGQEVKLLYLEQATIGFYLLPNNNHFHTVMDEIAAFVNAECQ
The assay can be described thus: Competitive ability of GA in AtGID1-GA binding (AtGID1c). On the procedure: In the gibberellin-binding assay, [1,2,16,17-^3H4]16,17-dihydro-GA4 was used as a labeled GA4. In vitro GA-binding assays were carried out using previous methods with some modifications (Nakajima, M. et al., Biochem. Biophys. Res. Comm. 241, 782-786 (1997)). The purified recombinant GID1 protein (400 pmol) was dissolved in 300 μl of binding buffer [20 mM Tris-HCl (pH 7.6), 5 mM 2-mercaptoethanol, and 0.1 M NaCl], and incubated with 100 μl of ^3H4-16,17-dihydroGA4 (6 pmol) for two hours at 25° C., either in the absence of non-labeled GA4 (total binding) or in the presence of 833-fold excess non-labeled GA4 (total non-specific binding). Then, 0.1 ml of the reaction mixture was loaded onto a NAP-5 column (Amersham Biosciences, Piscataway, N.J.). The eluate of the binding buffer (0.6 ml) was discarded, the subsequent eluate (0.2 ml) was collected, and the radioactivity was measured. The specific binding activity, reflecting the number of displaceable GA binding sites, was calculated by subtracting the amount of nonspecific binding from the amount of total binding. The same as above can also be carried out for other GAs.
Specifically, the coding region of the AtGID1 gene was amplified by PCR using specific primers designed based on the full-length cDNA sequence of the AtGID1 gene and having appropriate restriction sites at each end. After confirmation by sequence analysis, each cDNA fragment was ligated into pET32a vector (Novagen/Merck Biosciences, Madison, Wis., USA) or pGEX-4T-2 vector (Amersham Biosciences, Piscataway, N.J., USA; currently, a part of GE Healthcare). The production of recombinant proteins was confirmed by SDS-PAGE; vector cassettes were used as negative controls. GA binding assays were carried out similarly as described above using [1,2,16,17-^3H4]-16,17-dihydro-GA4 (4.55 TBq/mmol), which was custom-made by DuPont/NEN (Boston, Mass., USA). Non-labeled GA4 (1.25 mM) was used to measure non-specific binding. Saturation experiments for the kinetic analysis were carried out using ten concentrations of 16,17-dihydro-GA4 within the range of 25 to 1,500 nM. Competition assays were performed using [1,2,16,17-^3H4]-16,17-dihydro-GA4 at 15 nM and five concentrations of the non-labeled competitor. Recombinant RGA and GAI proteins were prepared using pET32a by a previously described method.
The ligand selectivity of each AtGID1 was examined by observing the competitive inhibition, by the addition of GA to the assay mixtures, of the binding between the recombinant proteins and tritiated 16,17-dihydro-GA4 (Table 2). The ligand selectivity was evaluated using the concentration of GA that inhibits 50% of the tracer (15 nM) binding (IC50 value).

The next assay has as its target T2, GID1 (Oryza sativa subsp. japonica, UniProt Q6L545).
T2 construct: GST (tag of vector pGEX-4T) (N); made in house
Kind of assay: Saturation/Scatchard and association/dissociation analysis of GA binding to recombinant GID1. Details: species or system rice. Conditions: Scatchard plot analysis. Here is the method:
Panel a) depicts the saturability for the GA binding of GID1. […] Bar represents the standard deviation (n=3). Panel b) depicts the results of a Scatchard plot for the data of binding shown in a. The Kd value was calculated (correlation coefficient R^2=0.96) from t three independent experimental results. Panel c) depicts the ^3H-GA association/dissociation rate to GID1. […] Bar represents the standard deviation (n=3). […] Upper panel, none of three recombinant proteins of mutant GID1s (GID1-1, 1-2, and 1-3) corresponding to the three gid1 alleles interacted with GA4. […] Bar represents the standard deviation (n=3). Bottom panel, Coomassie brilliant blue stain of the recombinant proteins used in this experiment. Dot represents GID or tag proteins in the SDS-PAGE profile. In this experiment, almost equal amounts of proteins were used for each (80 pmol). Panel e) depicts the gross morphologies of a GID1-overexpressing plant (Actin1 promoter-GID1, right) and wild type plant (control, left) three months after seeding. Bar=50 cm. f) dose-dependent GA response in the elongation of the second leaf sheath of GID1overexpressing plant (closed triangle) and wild type (closed circle). Bar represents the standard deviation (n=5).
In the gibberellin-binding assay, [1,2,16,17-^3H4]16,17-dihydro-GA4 was used as a labeled GA4. In vitro GA-binding assays were carried out using previous methods with some modifications (Nakajima, M. et al., Biochem. Biophys. Res. Comm. 241, 782-786 (1997)). […] The eluate of the binding buffer (0.6 ml) was discarded, the subsequent eluate (0.2 ml) was collected, and the radioactivity was measured. The specific binding activity, reflecting the number of displaceable GA binding sites, was calculated by subtracting the amount of nonspecific binding from the amount of total binding. […]
Next, the kinetics of the binding of GID1 to GA was analyzed. To calculate the Kd value of GID1 to GA, the saturability of GA binding was measured using various concentrations of GA4 derivative (FIG. 4a). […]

What is called IC50 is the concentration that inhibits the measured activity by half. High values mean a need for much substance, low ones inhibition by little substance. A word on the Kd: it is the concentration at which binding is half-saturated.

T2 sequence (Q6L545 whole entry): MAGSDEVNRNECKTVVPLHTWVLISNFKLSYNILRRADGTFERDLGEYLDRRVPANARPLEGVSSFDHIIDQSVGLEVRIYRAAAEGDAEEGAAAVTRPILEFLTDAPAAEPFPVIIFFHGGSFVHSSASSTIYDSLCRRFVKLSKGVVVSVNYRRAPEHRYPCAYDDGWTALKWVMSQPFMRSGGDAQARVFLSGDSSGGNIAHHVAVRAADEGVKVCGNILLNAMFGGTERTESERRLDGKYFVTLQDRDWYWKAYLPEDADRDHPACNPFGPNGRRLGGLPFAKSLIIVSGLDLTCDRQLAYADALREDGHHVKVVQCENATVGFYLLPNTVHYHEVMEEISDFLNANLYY

Take `CC1C[C@]23C[C@H]1CCC2[C@]12CC[C@H](O)[C@](C)(C(=O)O1)[C@H]2[C@@H]3C(=O)O` (stereo partly drawn) [H2-GA4, 16,17-dihydro-GA4]: the “relative value, taking the value for GA4 as 100” value on AtGID1c is “(6) %”. Also, the IC50 at AtGID1c (tracer 15 nM, mean of at least two measurements) stood at 5 µM. Further, on GID1, the Kd came out at 1.4 µM.

Source of the values: patent publication US7915050B2, “Regulatory genes for plant differentiation and growth, and use of the same” (National University Corporation Nagoya University, priority 2005, dated 2011).
